In publication PMC10413441 (Chembiochem : a European journal of chemical biology, 2023):

Columns and labels:
[1] = tested on: CUTO9 cells; assay: wound-healing assay in CUTO9 cells; type: cell-based, human; conditions: for suppression of cell migration (wound closure) / impact on wound closure: 24 hours; for inhibition at 1 µM: Homo sapiens, 24 h, read-out: inhibition of wound closure
[2] = tested on: A549 NSCLC cells; assay: wound-healing assay in A549 cells; conditions: for wound closure inhibition: A549 cells (no EML4-ALK, mutant KRAS), 48 hours
[3] = tested on: YAP1 phosphorylation at S127; assay: immunoblot analysis of Hippo signaling in CUTO9 cells; type: cell-based, human; conditions: 2 hours, brigatinib, lorlatinib 3 μM each, MRT67307 1 μM
[4] = tested on: MARK2/3; assay: immunoblotting of cross-competition pulldowns; type: binding, human; conditions: CUTO9 cells pre-treated with 2.5 μM TKI for 24 hours, immunoblot
[5] = tested on: EML4-ALK
[6] = tested on: MARK3; conditions: read-out: previously reported in vitro IC50; cited from earlier work
[7] = tested on: MARK2; conditions: read-out: reported in vitro IC50; cited from earlier work
[8] = cited from earlier work

CNC(=O)c1ccc(Nc2ncc(C(F)(F)F)c(NCc3nccnc3N(C)S(C)(=O)=O)n2)cc1 [defactinib]
effects on migration ([1]; CUTO9 cells): minor, but notable effects | effects on migration ([2]; A549 cells): minor, but notable effects

COc1cc(N2CCC(N3CCN(C)CC3)CC2)ccc1Nc1ncc(Cl)c(Nc2ccccc2P(C)(C)=O)n1 [brigatinib]
suppression of cell migration (wound closure) ([1]; CUTO9 cells, 3 μM): approximately 70% | inhibition at 1 µM [1]: ~40% | phosphorylation of YAP1 at S127 [3]: induced phosphorylation of YAP1 at S127 | competition for binding of MARK2/3 to i-brigatinib beads [4]: more completely competed | competition for EML4-ALK [5]: strongest extent of competition | IC50 [6]: 127 nM | IC50 [7]: 93 nM | reported clinically relevant concentration ([8]; clinical): 2.9 µM | Cmax ([8]; read-out: plasma Cmax, reported, no reference given): 2500 nM | wound closure inhibition [2]: wound closure inhibition observed

C[C@H]1Oc2cc(cnc2N)-c2c(nn(C)c2C#N)CN(C)C(=O)c2ccc(F)cc21 [lorlatinib]
impact on wound closure ([1]; CUTO9 cells): no impact on wound closure | phosphorylation of YAP1 at S127 [3]: not observed

C[C@@H](Oc1cc(-c2cnn(C3CCNCC3)c2)cnc1N)c1c(Cl)ccc(F)c1Cl [crizotinib]
impact on wound closure ([1]; CUTO9 cells): no impact on wound closure

O=C(NCCCNc1nc(Nc2cccc(CN3CCOCC3)c2)ncc1C1CC1)C1CCC1 [MRT67307]
reduction of cell migration ([1]; CUTO9 cells, 1 μM): approximately 25% | reduction of cell migration ([1]; CUTO9 cells, 3 μM): ~40% | phosphorylation of YAP1 at S127 [3]: induced phosphorylation of YAP1 at S127

CCc1cc2c(cc1N1CCC(N3CCOCC3)CC1)C(C)(C)c1[nH]c3cc(C#N)ccc3c1C2=O [alectinib]
suppression of cell migration (wound closure) ([1]; CUTO9 cells, 3 μM): ~45% | inhibition at 1 µM [1]: ~30% | competition for binding of MARK2/3 to i-brigatinib beads [4]: more completely competed | wound closure inhibition [2]: wound closure inhibition observed
